Results as given in patent US11046730B2, “Antimicrobial compositions” (The Regents of the University of California, priority 2016, dated 2021).
Bridge positions count the residues as written; N and C are the ends. Square brackets hold non-standard residues; d marks the D form. Peptide text beside a SMILES is read from it.

How the values were obtained:
[1] = tested on: Gram-positive bacteria; assay: minimum inhibitory concentration (MIC) assays against four types of Gram-positive bacteria; type: cell-based; conditions: for MIC: four Gram-positive bacteria studied, homologues as TFA salts; for antibiotic activity in MIC assays, result in words: Gram-positive bacteria, mostly compared with Arg10-teixobactin; for MIC values lower than those of Arg10-teixobactin (fold): relative to Arg10-teixobactin; for MIC values: four species of Gram-positive bacteria
Text: The antibiotic activity of Arg10-teixobactin and homologues was investigated in minimum inhibitory concentration (MIC) assays against four types of Gram-positive bacteria, as well as control substances, in order to elucidate the importance of various functionalities within teixobactin analogues and guide the rational design of new antimicrobial compounds (as summarized in Tables 1, 2 and 3 (FIGS. 5A, 5B, and 5C respectively). These MIC studies used vancomycin as a positive control and the Gram-negative bacterium E. coli as a negative control.

[2] = gel formation / solubility; type: physicochemical; conditions: propensity to form a gel
Procedure: In addition, according to many embodiments of the invention, teixobactin homologues can be functionalized at position 9 to improve solubility for easier or more efficient drug administration. For example, Arg10-teixobactin has the propensity to form a gel at concentrations as low as 5 mg/mL. This poor solubility will hamper the ability of Arg10-teixobactin or any other teixobactin derivative to be used as a drug because it will impede intravenous administration. […] More specifically, in some embodiments of the invention the water solubility of teixobactin analogues can be improved by functionalization of position 9 with polyethylene glycol (PEG) derivatives. In one embodiment, Ala9 is replaced with a PEG-containing amino acid, such as Gln(PEG6OMe), the derivative of Glu, in which the side chain has been coupled to H2NCH2CH2(OCH2CH2)5OMe.

[3] = tested on: Gram-positive bacteria; conditions: literature structure-activity studies; cited from earlier work

Molecule	antibiotic activity in MIC assays, result in words [1]	further results
CC[C@H](C)[C@H](NC(=O)[C@@H](Cc1ccccc1)NC)C(=O)N[C@@H](CO)C(=O)N[C@H](CCC(N)=O)C(=O)N[C@@H](C(=O)N[C@H](C(=O)N[C@@H](CO)C(=O)N[C@H]1C(=O)N[C@@H](C)C(=O)N[C@@H](CCCNC(=N)N)C(=O)N[C@@H]([C@@H](C)CC)C(=O)O[C@H]1C)[C@@H](C)CC)[C@@H](C)CC [Arg10-teixobactin]		MIC [1]: 1 to 4 µg/mL; concentration at which a gel forms [2]: ≥ 5000 µg/mL; activity relative to teixobactin in MIC assays [3]: about an order of magnitude less active
CC[C@H](C)[C@H](N)C(=O)N[C@@H](CO)C(=O)N[C@H]1C(=O)N[C@@H](C)C(=O)N[C@@H](CCCNC(=N)N)C(=O)N[C@@H]([C@@H](C)CC)C(=O)O[C@H]1C [short-Arg10-teixobactin] (H-IS[dT]ARI; ester 3-C)		MIC [1]: > 32 µg/mL
Ac-Δ1-5-Arg10-teixobactin	inactive	
Ala3,Lys10-teixobactin	diminished the activity of position 10 lysine analogue	
Ala7,Arg10-teixobactin	greatly diminished activity	
Arg10Lys11-teixobactin	loss of activity	
Chg6,Arg10,Chg11-teixobactin	slightly greater activity than Arg10-teixobactin	MIC values lower than those of Arg10-teixobactin (fold) [1]: lower by a factor of two
D-Dap8,Arg10-teixobactin	comparable activity to Arg10-teixobactin	
D-allo-Ile11,Arg10-teixobactin	half as active	
Glu(PEG-Biotinyl)9,Lys10-teixobactin		MIC values [1]: 2-16 micrograms/mL
Lys6Arg10-teixobactin	loss of activity	
Lys9Arg10-teixobactin		antibiotic activity in MIC assays, result in words ([1]; listed as Lys9,Arg10-teixobactin): proven activity
Lys10-teixobactin	comparable to those of vancomycin	MIC values lower than those of Arg10-teixobactin (fold) [1]: 2-4 times
Lys(Mca)9,Lys10-teixobactin		MIC values [1]: 1-8 micrograms/mL
Orn10-teixobactin	excellent to satisfactory antimicrobial activity	
dodecanoyl-Δ1-5-Arg10-teixobactin [lipobactin 1]	activity close to that of Arg10-teixobactin	
ent-Arg10-teixobactin	comparable activity to Arg10-teixobactin	
